Experimental data taken from ChEMBL document CHEMBL1201862, “PubChem BioAssay data set” (2004).
Where a name gives a salt, the structure may show the parent alone.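 In this assay, cells in 96-well plates receive the compound at five concentrations for 48 hours. Endpoints are linearly interpolated between the surrounding concentrations. At the GI50, growth is halved.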 Active and inactive are the calls of the source. Cut-off read from the data, not from the text of the source: active = GI50 up to about 1.1 µM and inactive = higher.

Experiments:
Test in all cases: inhibition of tumour cell growth, NCI panel, 48 h
TK-10 = tested on: TK-10
IGROV-1 = tested on: IGROV-1
UACC-257 = tested on: UACC-257
HCC 2998 = tested on: HCC 2998
NCI-H23 = tested on: NCI-H23
UACC-62 = tested on: UACC-62
LOX IMVI = tested on: LOX IMVI
SF-295 = tested on: SF-295
OVCAR-3 = tested on: OVCAR-3
HCT-15 = tested on: HCT-15
SK-MEL-5 = tested on: SK-MEL-5
Malme-3M = tested on: Malme-3M
SK-MEL-28 = tested on: SK-MEL-28
NCI-H522 = tested on: NCI-H522
EKVX = tested on: EKVX
786-0 = tested on: 786-0
NCI-H226 = tested on: NCI-H226
SR = tested on: SR
U-251 = tested on: U-251
A549 = tested on: A549

Row | Structure (SMILES) | GI50 (TK-10) | GI50 (IGROV-1) | GI50 (UACC-257) | GI50 (HCC 2998) | GI50 (NCI-H23) | GI50 (UACC-62) | GI50 (LOX IMVI) | GI50 (SF-295) | GI50 (OVCAR-3) | GI50 (HCT-15) | GI50 (SK-MEL-5) | GI50 (Malme-3M) | GI50 (SK-MEL-28) | GI50 (NCI-H522) | GI50 (EKVX) | GI50 (786-0) | GI50 (NCI-H226) | GI50 (SR) | GI50 (U-251) | GI50 (A549)
1 | Cc1ccccc1C1=[N+]([O-])c2ccc(Cl)cc2C1=O | 20 µM (inactive) | 15.3 µM (inactive) | 13.1 µM (inactive) | 13.6 µM (inactive) | 17.7 µM (inactive) | 12.4 µM (inactive) | 7.78 µM (inactive) | 14.6 µM (inactive) | 2.6 µM (inactive) | 13.3 µM | 13.8 µM (inactive) | 16.9 µM (inactive) | 21.1 µM (inactive) | 11.5 µM (inactive) | 12.5 µM (inactive) | 18.9 µM (inactive) | 14.4 µM (inactive) | 11.8 µM (inactive) | 17.7 µM (inactive) | 19.6 µM (inactive)
2 | C#C[C@]1(O)CC[C@H]2[C@@H]3CCC4=C/C(=N/OCCN(C)C)CC[C@]4(C)[C@H]3CC[C@@]21C | > 100 µM (inactive) | 50.7 µM (inactive) | 52.5 µM (inactive) | 41 µM (inactive) | 36.1 µM (inactive) | 32.5 µM (inactive) | 37.8 µM (inactive) | 6.97 µM (inactive) | 22 µM (inactive) | 36.1 µM | 13.2 µM (inactive) | 22.1 µM (inactive) | 51.5 µM (inactive) | 16.3 µM (inactive) | 32.3 µM (inactive) | 29.2 µM (inactive) | 27.3 µM (inactive) | 12.1 µM (inactive) | 33.6 µM (inactive) | 31.7 µM (inactive)
3 | C=C(Cl)/C(=C\Br)CCC(Cl)C(C)C.C=C(Cl)/C(=C\Cl)CCC(Cl)C(C)C (stereo unspecified) | 19.8 µM (inactive) | 14.7 µM (inactive) | 13.6 µM (inactive) | 18.7 µM (inactive) | 14.6 µM (inactive) | 12.7 µM (inactive) | 1.67 µM (inactive) | 18.8 µM (inactive) | 16.5 µM (inactive) | – | 13.9 µM (inactive) | 15.1 µM (inactive) | 17.2 µM (inactive) | 4.73 µM (inactive) | 18.7 µM (inactive) | 15.3 µM (inactive) | 23.4 µM (inactive) | 6.53 µM (inactive) | 16.4 µM (inactive) | 28 µM (inactive)
4 | O=C(N/C(=C/c1ccc(Cl)cc1)c1nc2ccccc2c(=O)n1Nc1ccc([N+](=O)[O-])cc1[N+](=O)[O-])c1ccccc1 | > 100 µM (inactive) | > 100 µM (inactive) | > 100 µM (inactive) | > 100 µM (inactive) | > 100 µM (inactive) | > 100 µM (inactive) | > 100 µM (inactive) | > 100 µM (inactive) | > 100 µM (inactive) | > 100 µM | > 100 µM (inactive) | > 100 µM (inactive) | > 100 µM (inactive) | > 100 µM (inactive) | – | > 100 µM (inactive) | > 100 µM (inactive) | > 100 µM (inactive) | > 100 µM (inactive) | > 100 µM (inactive)
5 | CC(C)(C)c1ccc(C(C)(C)C)c(N2C(=O)C3ON=C(c4ccc([N+](=O)[O-])cc4)C3C2=O)c1 (stereo unspecified) | > 25 µM (inactive) | 4.5 µM (inactive) | > 25 µM (inactive) | 5.02 µM (inactive) | > 25 µM (inactive) | 17.8 µM (inactive) | 9.04 µM (inactive) | 12.9 µM (inactive) | 10.5 µM (inactive) | 20.3 µM | > 25 µM (inactive) | > 25 µM (inactive) | > 25 µM (inactive) | 18.4 µM (inactive) | 20.3 µM (inactive) | 3.15 µM (inactive) | 18.6 µM (inactive) | 3.48 µM (inactive) | – | 5.61 µM (inactive)
6 | CCN(CC)CCCNc1ncc(C)c2c1c1ccc3c(O)cccc3c1n2C | 10.5 µM (inactive) | 1.96 µM (inactive) | 16.3 µM (inactive) | 0.798 µM (active) | 1.8 µM (inactive) | 18 µM (inactive) | 1.29 µM (inactive) | 1.73 µM (inactive) | 3.87 µM (inactive) | 2.74 µM | 6.76 µM (inactive) | 14.7 µM (inactive) | 9.82 µM (inactive) | 1.05 µM (active) | 3.02 µM (inactive) | 0.789 µM (active) | 3.44 µM (inactive) | 0.282 µM (active) | 1.1 µM (active) | 0.389 µM (active)
7 | CC(CN1c2ccccc2Sc2ccccc21)N(C)C (stereo unspecified) [PROMETHAZINE HYDROCHLORIDE] | – | 20.1 µM (inactive) | 23.9 µM (inactive) | 20.1 µM (inactive) | 21.8 µM (inactive) | 19 µM (inactive) | 18.9 µM (inactive) | 15.4 µM (inactive) | 16.5 µM (inactive) | 17.5 µM | 21.1 µM (inactive) | 18.9 µM (inactive) | 17.8 µM (inactive) | 19.8 µM (inactive) | 22.6 µM (inactive) | 14.8 µM (inactive) | 19.1 µM (inactive) | 21.8 µM (inactive) | 14.2 µM (inactive) | 20 µM (inactive)
